# Experimental data taken from ChEMBL document CHEMBL3885881, “DrugMatrix”.
# Species: Rattus norvegicus
# Test: DrugMatrix - Regimen: Daily Repeat
# Type: toxicity, organism-based, Sprague-Dawley
# Set-up: regimen Daily Repeat, gender Male, age 6-8 weeks
# Settings: in vivo, po, route oral GAVAGE, vehicle 100 % SALINE; for ABSOLUTE BASOPHIL / ABSOLUTE EOSINOPHIL / ABSOLUTE LYMPHOCYTE / ABSOLUTE MONOCYTE / ABSOLUTE SEGMENTED NEUTROPHIL / BASOPHIL / EOSINOPHIL / ERYTHROCYTE COUNT / HEMATOCRIT / HEMOGLOBIN / LEUKOCYTE COUNT / LYMPHOCYTE / MEAN CORPUSCULAR HEMOGLOBIN / MEAN CORPUSCULAR HEMOGLOBIN CONCENTRATION / MEAN CORPUSCULAR VOLUME / MONOCYTE / NEUTROPHIL / NUCLEATED RED BLOOD CELLS / PLATELET COUNT: tissue Blood; for ALANINE AMINOTRANSFERASE / ALBUMIN / ALKALINE PHOSPHATASE / ASPARTATE AMINOTRANSFERASE / BLOOD UREA NITROGEN / CARBON DIOXIDE / CHLORIDE / CHOLESTEROL / CREATINE PHOSPHOKINASE / CREATININE / GLUCOSE / LACTATE DEHYDROGENASE / LIPASE / PHOSPHORUS / POTASSIUM / SODIUM / TOTAL BILIRUBIN / TOTAL PROTEIN / URIC ACID: tissue Plasma
# [1] = 0 mg/kg, 72 h, dose level Control, time 3 day
# [2] = 0 mg/kg, 120 h, dose level Control, time 5 day
# [3] = 29 mg/kg, 72 h, dose level Low, time 3 day
compound,measurement,setting,value
Cc1ccnc2c1NC(=O)c1cccnc1N2C1CC1 [NEVIRAPINE],ABSOLUTE BASOPHIL,[1],0 CELLS/uL
same,ABSOLUTE EOSINOPHIL,[1],37 CELLS/uL
same,ABSOLUTE LYMPHOCYTE,[1],12359.33 CELLS/uL
same,ABSOLUTE MONOCYTE,[1],122.67 CELLS/uL
same,ABSOLUTE SEGMENTED NEUTROPHIL,[1],847.67 CELLS/uL
same,BASOPHIL,[1],0%
same,EOSINOPHIL,[1],0.33%
same,ERYTHROCYTE COUNT,[1],5.75 x10E6/uL
same,HEMATOCRIT,[1],36.08%
same,HEMOGLOBIN,[1],14.07 G/DL
same,LEUKOCYTE COUNT,[1],13.37 x10E3/uL
same,LYMPHOCYTE,[1],92.5%
same,MEAN CORPUSCULAR HEMOGLOBIN,[1],24.47 pg
same,MEAN CORPUSCULAR HEMOGLOBIN CONCENTRATION,[1],38.98 G/DL
same,MEAN CORPUSCULAR VOLUME,[1],62.78 fL
same,MONOCYTE,[1],1%
same,NEUTROPHIL,[1],6.17%
same,NUCLEATED RED BLOOD CELLS,[1],0.17 /100WBC
same,PLATELET COUNT,[1],1202.17 x10E3/uL
same,ALANINE AMINOTRANSFERASE,[1],50.67 u/L
same,ALBUMIN,[1],4.13 G/DL
same,ALKALINE PHOSPHATASE,[1],356.33 u/L
same,ASPARTATE AMINOTRANSFERASE,[1],78.17 u/L
same,BLOOD UREA NITROGEN,[1],14.17 mg/dL
same,CARBON DIOXIDE,[1],31.33 mmol/L
same,CHLORIDE,[1],98.5 MEQ/L
same,CHOLESTEROL,[1],76.5 mg/dL
same,CREATINE PHOSPHOKINASE,[1],248.33 u/L
same,CREATININE,[1],0.2 mg/dL
same,GLUCOSE,[1],144 mg/dL
same,LACTATE DEHYDROGENASE,[1],107 u/L
same,LIPASE,[1],9.83 u/L
same,PHOSPHORUS,[1],12.8 mg/dL
same,POTASSIUM,[1],6.75 MEQ/L
same,SODIUM,[1],142 MEQ/L
same,TOTAL BILIRUBIN,[1],0.18 mg/dL
same,TOTAL PROTEIN,[1],5.98 G/DL
same,URIC ACID,[1],1.42 mg/dL
same,ABSOLUTE BASOPHIL,[2],0 CELLS/uL
same,ABSOLUTE EOSINOPHIL,[2],0 CELLS/uL
same,ABSOLUTE LYMPHOCYTE,[2],8681.17 CELLS/uL
same,ABSOLUTE MONOCYTE,[2],79.83 CELLS/uL
same,ABSOLUTE SEGMENTED NEUTROPHIL,[2],689 CELLS/uL
same,BASOPHIL,[2],0%
same,EOSINOPHIL,[2],0%
same,ERYTHROCYTE COUNT,[2],5.49 x10E6/uL
same,HEMATOCRIT,[2],33.55%
same,HEMOGLOBIN,[2],13.1 G/DL
same,LEUKOCYTE COUNT,[2],9.45 x10E3/uL
same,LYMPHOCYTE,[2],92.33%
same,MEAN CORPUSCULAR HEMOGLOBIN,[2],23.92 pg
same,MEAN CORPUSCULAR HEMOGLOBIN CONCENTRATION,[2],39.07 G/DL
same,MEAN CORPUSCULAR VOLUME,[2],61.22 fL
same,MONOCYTE,[2],0.67%
same,NEUTROPHIL,[2],7%
same,NUCLEATED RED BLOOD CELLS,[2],0.17 /100WBC
same,PLATELET COUNT,[2],1001.17 x10E3/uL
same,ALANINE AMINOTRANSFERASE,[2],49.33 u/L
same,ALBUMIN,[2],4.07 G/DL
same,ALKALINE PHOSPHATASE,[2],300.33 u/L
same,ASPARTATE AMINOTRANSFERASE,[2],83.5 u/L
same,BLOOD UREA NITROGEN,[2],16 mg/dL
same,CARBON DIOXIDE,[2],29.67 mmol/L
same,CHLORIDE,[2],100.5 MEQ/L
same,CHOLESTEROL,[2],74.33 mg/dL
same,CREATINE PHOSPHOKINASE,[2],489.67 u/L
same,CREATININE,[2],0.35 mg/dL
same,GLUCOSE,[2],151 mg/dL
same,LACTATE DEHYDROGENASE,[2],133.67 u/L
same,LIPASE,[2],11.17 u/L
same,PHOSPHORUS,[2],10.88 mg/dL
same,POTASSIUM,[2],5.5 MEQ/L
same,SODIUM,[2],145.7 MEQ/L
same,TOTAL BILIRUBIN,[2],0.2 mg/dL
same,TOTAL PROTEIN,[2],6.05 G/DL
same,URIC ACID,[2],0.68 mg/dL
same,ABSOLUTE BASOPHIL,[3],0 CELLS/uL
same,ABSOLUTE EOSINOPHIL,[3],29.67 CELLS/uL
same,ABSOLUTE LYMPHOCYTE,[3],8345.33 CELLS/uL
same,ABSOLUTE MONOCYTE,[3],0 CELLS/uL
same,ABSOLUTE SEGMENTED NEUTROPHIL,[3],725 CELLS/uL
same,BASOPHIL,[3],0%
same,EOSINOPHIL,[3],0.33%
same,ERYTHROCYTE COUNT,[3],5.42 x10E6/uL
same,HEMATOCRIT,[3],33.9%
same,HEMOGLOBIN,[3],13.2 G/DL
same,LEUKOCYTE COUNT,[3],9.1 x10E3/uL
same,LYMPHOCYTE,[3],91.67%
same,MEAN CORPUSCULAR HEMOGLOBIN,[3],24.43 pg
same,MEAN CORPUSCULAR HEMOGLOBIN CONCENTRATION,[3],38.93 G/DL
same,MEAN CORPUSCULAR VOLUME,[3],62.7 fL
same,MONOCYTE,[3],0%
same,NEUTROPHIL,[3],8%
same,NUCLEATED RED BLOOD CELLS,[3],0 /100WBC
same,PLATELET COUNT,[3],673.67 x10E3/uL
same,ALANINE AMINOTRANSFERASE,[3],74.33 u/L
same,ALBUMIN,[3],4.3 G/DL
same,ALKALINE PHOSPHATASE,[3],343.67 u/L
same,ASPARTATE AMINOTRANSFERASE,[3],123.67 u/L
same,BLOOD UREA NITROGEN,[3],10.33 mg/dL
same,CARBON DIOXIDE,[3],28.33 mmol/L
same,CHOLESTEROL,[3],68.67 mg/dL
same,CREATINE PHOSPHOKINASE,[3],179.33 u/L
same,CREATININE,[3],0.43 mg/dL
same,GLUCOSE,[3],142.67 mg/dL
same,LACTATE DEHYDROGENASE,[3],65.33 u/L
same,LIPASE,[3],15.67 u/L
same,PHOSPHORUS,[3],10.83 mg/dL
same,TOTAL BILIRUBIN,[3],0.13 mg/dL
same,TOTAL PROTEIN,[3],5.03 G/DL
same,URIC ACID,[3],0.37 mg/dL
same,ABSOLUTE BASOPHIL,"29 mg/kg, 120 h, dose level Low, time 5 day",0 CELLS/uL
